Measurements published in the kinase profiling compilation of Christmann-Franck et al. (2016).

How the values were obtained:
Assay in all cases: KINOMEscan competition binding
Conditions in all cases: compound 10.0 µM
[1] = target: MELK (human) (UniProt Q14680)
[2] = target: STK25 (human) (UniProt O00506)
[3] = target: GAK (human) (UniProt O14976)
[4] = target: TAOK3 (human) (UniProt Q9H2K8)
[5] = target: PRKACB (human) (UniProt P22694)
[6] = target: AKT3 (human) (UniProt Q9Y243)
[7] = target: DAPK2 (human) (UniProt Q9UIK4)
[8] = target: TYK2 JH1 catalytic (human) (UniProt P29597)
[9] = target: PRKX (human) (UniProt P51817)
[10] = target: EPHA7 (human) (UniProt Q15375)
[11] = target: PAK6 (human) (UniProt Q9NQU5)
[12] = target: RIOK1 (human) (UniProt Q9BRS2)
[13] = target: DYRK1B (human) (UniProt Q9Y463)
[14] = target: NUAK1 (human) (UniProt O60285)
[15] = target: CaMK1 (human) (UniProt Q14012)
[16] = target: PHKG1 (human) (UniProt Q16816)
[17] = target: TNK1 (human) (UniProt Q13470)
[18] = target: LATS2 (human) (UniProt Q9NRM7)
[19] = target: MAP3K10 (human) (UniProt Q02779)
[20] = target: CDK3 (human) (UniProt Q00526)
[21] = target: CDC42BPA (human) (UniProt Q5VT25)
[22] = target: ACVRL1 (human) (UniProt P37023)
[23] = target: MAPK3 (human) (UniProt P27361)
[24] = target: PRKCE (human) (UniProt Q02156)
[25] = target: MARK1 (human) (UniProt Q9P0L2)
[26] = target: SRC (human) (UniProt P12931)
[27] = target: STK24 (human) (UniProt Q9Y6E0)
[28] = target: CHEK2 (human) (UniProt O96017)
[29] = target: MAPKAPK5 (human) (UniProt Q8IW41)
[30] = target: DAPK3 (human) (UniProt O43293)
[31] = target: MYO3B (human) (UniProt Q8WXR4)
[32] = target: MYLK (human) (UniProt Q15746)
[33] = target: ULK1 (human) (UniProt O75385)
[34] = target: MKNK1 (human) (UniProt Q9BUB5)
[35] = target: FYN (human) (UniProt P06241)
[36] = target: CSNK1E (human) (UniProt P49674)
[37] = target: TNNI3K (human) (UniProt Q59H18)
[38] = target: JAK2 JH1 catalytic (human) (UniProt O60674)
[39] = target: PIM1 (human) (UniProt P11309)
[40] = target: SRPK3 (human) (UniProt Q9UPE1)
Sequence of SRPK3 (human) (Q9UPE1 whole entry, looked up): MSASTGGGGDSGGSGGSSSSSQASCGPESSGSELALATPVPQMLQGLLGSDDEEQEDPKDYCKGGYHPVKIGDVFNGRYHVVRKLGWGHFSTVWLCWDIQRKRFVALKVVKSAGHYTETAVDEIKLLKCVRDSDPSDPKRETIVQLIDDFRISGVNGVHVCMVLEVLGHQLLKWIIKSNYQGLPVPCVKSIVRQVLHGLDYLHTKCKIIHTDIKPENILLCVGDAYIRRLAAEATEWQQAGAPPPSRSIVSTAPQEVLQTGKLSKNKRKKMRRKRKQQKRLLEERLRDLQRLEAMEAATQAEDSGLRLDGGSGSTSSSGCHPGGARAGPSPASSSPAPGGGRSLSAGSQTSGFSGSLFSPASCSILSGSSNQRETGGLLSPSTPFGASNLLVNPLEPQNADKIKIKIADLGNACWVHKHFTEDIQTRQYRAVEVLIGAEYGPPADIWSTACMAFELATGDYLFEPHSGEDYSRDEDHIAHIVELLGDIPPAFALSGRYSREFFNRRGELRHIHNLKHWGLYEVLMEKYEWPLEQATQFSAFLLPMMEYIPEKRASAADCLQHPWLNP

Sequence of MYLK (human) (Q15746 whole entry, looked up): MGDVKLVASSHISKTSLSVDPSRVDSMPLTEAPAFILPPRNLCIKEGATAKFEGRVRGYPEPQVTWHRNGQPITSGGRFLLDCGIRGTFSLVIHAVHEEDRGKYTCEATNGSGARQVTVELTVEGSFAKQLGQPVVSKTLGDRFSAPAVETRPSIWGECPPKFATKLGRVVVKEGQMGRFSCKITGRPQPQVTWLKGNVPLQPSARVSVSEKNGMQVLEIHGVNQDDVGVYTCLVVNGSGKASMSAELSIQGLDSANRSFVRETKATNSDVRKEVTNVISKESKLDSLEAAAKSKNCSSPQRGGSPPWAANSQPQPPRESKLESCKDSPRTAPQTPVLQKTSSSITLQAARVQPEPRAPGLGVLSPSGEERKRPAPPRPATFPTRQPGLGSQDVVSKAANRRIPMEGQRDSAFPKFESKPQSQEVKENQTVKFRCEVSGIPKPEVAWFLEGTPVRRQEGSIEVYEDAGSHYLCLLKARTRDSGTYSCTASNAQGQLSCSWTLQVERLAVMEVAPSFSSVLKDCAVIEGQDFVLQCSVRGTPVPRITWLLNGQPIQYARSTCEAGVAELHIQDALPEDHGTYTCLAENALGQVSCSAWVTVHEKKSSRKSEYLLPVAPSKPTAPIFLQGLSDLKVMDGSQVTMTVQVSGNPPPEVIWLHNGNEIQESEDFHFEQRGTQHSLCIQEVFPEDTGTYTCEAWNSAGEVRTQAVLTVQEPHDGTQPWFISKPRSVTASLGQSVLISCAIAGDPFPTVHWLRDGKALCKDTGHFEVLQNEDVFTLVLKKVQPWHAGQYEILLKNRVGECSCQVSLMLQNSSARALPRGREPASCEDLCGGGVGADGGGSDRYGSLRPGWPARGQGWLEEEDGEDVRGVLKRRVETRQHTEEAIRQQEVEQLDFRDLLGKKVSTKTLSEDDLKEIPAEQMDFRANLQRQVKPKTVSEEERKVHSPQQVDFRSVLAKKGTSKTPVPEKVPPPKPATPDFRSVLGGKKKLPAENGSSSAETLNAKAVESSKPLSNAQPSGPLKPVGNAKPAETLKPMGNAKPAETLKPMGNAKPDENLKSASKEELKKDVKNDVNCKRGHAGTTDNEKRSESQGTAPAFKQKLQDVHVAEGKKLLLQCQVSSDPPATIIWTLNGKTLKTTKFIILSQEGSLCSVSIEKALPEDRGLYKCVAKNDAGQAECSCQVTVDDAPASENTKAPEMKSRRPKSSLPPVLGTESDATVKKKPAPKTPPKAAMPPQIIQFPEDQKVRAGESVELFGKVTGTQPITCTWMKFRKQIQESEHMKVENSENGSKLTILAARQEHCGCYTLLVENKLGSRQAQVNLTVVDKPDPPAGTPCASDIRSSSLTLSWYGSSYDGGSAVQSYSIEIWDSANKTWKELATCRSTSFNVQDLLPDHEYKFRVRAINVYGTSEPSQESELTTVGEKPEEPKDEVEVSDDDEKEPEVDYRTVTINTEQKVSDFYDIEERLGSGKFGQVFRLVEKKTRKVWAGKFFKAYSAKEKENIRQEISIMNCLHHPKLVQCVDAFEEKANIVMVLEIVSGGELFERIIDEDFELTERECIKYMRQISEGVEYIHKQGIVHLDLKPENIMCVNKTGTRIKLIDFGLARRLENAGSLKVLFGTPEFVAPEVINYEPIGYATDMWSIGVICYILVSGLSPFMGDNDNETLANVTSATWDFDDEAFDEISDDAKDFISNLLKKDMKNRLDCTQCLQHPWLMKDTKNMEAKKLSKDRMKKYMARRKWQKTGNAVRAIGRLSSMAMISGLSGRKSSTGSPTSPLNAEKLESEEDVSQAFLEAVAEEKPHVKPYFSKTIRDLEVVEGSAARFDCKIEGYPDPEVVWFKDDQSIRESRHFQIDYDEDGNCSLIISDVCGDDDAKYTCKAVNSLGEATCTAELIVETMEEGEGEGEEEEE
Sequence of JAK2 JH1 catalytic (human) (O60674 whole entry, looked up): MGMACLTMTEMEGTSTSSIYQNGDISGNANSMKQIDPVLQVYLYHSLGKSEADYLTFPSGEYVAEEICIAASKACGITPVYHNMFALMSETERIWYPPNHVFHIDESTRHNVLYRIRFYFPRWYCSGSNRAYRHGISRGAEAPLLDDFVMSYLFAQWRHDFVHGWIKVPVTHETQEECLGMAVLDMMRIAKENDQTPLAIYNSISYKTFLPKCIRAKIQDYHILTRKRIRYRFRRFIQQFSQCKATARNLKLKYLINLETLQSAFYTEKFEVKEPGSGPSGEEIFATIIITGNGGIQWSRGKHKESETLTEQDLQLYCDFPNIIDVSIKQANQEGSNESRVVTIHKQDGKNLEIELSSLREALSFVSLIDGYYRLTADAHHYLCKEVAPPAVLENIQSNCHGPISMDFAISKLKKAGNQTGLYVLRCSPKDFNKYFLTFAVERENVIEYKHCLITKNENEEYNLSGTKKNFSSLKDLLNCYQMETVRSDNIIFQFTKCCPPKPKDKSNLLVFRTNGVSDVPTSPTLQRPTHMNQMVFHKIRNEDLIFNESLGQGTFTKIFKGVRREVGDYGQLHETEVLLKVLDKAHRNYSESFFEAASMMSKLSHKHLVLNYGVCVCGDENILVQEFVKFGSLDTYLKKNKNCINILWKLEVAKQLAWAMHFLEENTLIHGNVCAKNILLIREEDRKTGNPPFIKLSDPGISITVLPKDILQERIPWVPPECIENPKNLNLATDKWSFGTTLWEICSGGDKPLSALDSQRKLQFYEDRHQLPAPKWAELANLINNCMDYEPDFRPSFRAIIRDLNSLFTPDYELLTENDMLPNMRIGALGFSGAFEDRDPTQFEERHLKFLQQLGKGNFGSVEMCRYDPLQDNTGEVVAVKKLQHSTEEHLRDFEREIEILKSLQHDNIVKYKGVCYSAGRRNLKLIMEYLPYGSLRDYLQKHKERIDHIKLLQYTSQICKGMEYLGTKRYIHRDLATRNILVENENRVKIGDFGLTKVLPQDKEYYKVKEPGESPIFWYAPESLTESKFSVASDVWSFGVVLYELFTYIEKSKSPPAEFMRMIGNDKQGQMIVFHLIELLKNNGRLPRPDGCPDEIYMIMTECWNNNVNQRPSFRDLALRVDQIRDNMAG
Sequence of ULK1 (human) (O75385 whole entry, looked up): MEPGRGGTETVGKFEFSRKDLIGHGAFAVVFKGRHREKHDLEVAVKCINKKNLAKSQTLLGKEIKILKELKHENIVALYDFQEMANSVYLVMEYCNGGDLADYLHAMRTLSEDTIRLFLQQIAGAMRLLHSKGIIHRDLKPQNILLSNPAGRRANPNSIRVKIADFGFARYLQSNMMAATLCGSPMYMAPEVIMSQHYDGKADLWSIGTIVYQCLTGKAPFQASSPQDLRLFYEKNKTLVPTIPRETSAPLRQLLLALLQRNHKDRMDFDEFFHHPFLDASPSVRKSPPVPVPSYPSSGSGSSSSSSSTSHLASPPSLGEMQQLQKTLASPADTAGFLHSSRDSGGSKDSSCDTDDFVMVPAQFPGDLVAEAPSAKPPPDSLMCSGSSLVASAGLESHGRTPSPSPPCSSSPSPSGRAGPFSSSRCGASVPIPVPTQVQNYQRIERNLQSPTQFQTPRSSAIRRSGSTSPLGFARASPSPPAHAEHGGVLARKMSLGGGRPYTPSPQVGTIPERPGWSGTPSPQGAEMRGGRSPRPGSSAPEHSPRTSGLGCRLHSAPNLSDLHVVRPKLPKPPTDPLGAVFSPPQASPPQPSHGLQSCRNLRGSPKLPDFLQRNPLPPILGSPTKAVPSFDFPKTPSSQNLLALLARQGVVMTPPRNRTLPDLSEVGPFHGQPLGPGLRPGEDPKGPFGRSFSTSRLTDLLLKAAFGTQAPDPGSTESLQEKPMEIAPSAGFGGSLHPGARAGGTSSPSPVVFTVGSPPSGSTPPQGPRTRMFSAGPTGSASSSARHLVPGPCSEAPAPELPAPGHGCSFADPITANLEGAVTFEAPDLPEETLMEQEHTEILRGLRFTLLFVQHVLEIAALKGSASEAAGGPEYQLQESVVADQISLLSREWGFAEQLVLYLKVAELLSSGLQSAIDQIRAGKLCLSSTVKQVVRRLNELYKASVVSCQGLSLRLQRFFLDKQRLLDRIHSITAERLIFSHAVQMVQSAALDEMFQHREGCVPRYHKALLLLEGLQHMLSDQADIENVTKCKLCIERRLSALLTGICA
Sequence of PRKX (human) (P51817 whole entry, looked up): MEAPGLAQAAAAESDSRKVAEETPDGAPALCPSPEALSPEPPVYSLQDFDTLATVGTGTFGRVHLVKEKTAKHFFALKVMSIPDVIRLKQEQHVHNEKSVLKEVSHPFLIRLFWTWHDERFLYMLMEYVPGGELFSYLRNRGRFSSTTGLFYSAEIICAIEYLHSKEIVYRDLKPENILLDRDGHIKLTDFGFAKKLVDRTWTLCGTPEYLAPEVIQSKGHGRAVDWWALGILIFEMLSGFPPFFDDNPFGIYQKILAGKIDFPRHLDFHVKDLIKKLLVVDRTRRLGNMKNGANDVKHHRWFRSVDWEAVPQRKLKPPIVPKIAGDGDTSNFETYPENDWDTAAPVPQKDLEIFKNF

Compound	kinase still bound, per cent of control [1]	kinase still bound, per cent of control [2]	kinase still bound, per cent of control [3]	kinase still bound, per cent of control [4]	kinase still bound, per cent of control [5]	kinase still bound, per cent of control [6]	kinase still bound, per cent of control [7]	kinase still bound, per cent of control [8]	kinase still bound, per cent of control [9]	kinase still bound, per cent of control [10]	kinase still bound, per cent of control [11]	kinase still bound, per cent of control [12]	kinase still bound, per cent of control [13]	kinase still bound, per cent of control [14]	kinase still bound, per cent of control [15]	kinase still bound, per cent of control [16]	kinase still bound, per cent of control [17]	kinase still bound, per cent of control [18]	kinase still bound, per cent of control [19]	kinase still bound, per cent of control [20]	other results
Cn1c(=O)n(-c2ccc(C(C)(C)C#N)cc2)c2c3cc(-c4cnc5ccccc5c4)ccc3ncc21	100%	100%	100%	100%	100%	100%	100%	100%	100%	100%	100%	100%	100%	30%	100%	100%	100%	100%	100%	100%	kinase still bound, per cent of control [21]: 100%; kinase still bound, per cent of control [22]: 100%; kinase still bound, per cent of control [23]: 100%; kinase still bound, per cent of control [24]: 100%; kinase still bound, per cent of control [25]: 100%; kinase still bound, per cent of control [26]: 100%; kinase still bound, per cent of control [27]: 100%; kinase still bound, per cent of control [28]: 100%; kinase still bound, per cent of control [29]: 100%; kinase still bound, per cent of control [30]: 100%; kinase still bound, per cent of control [31]: 100%; kinase still bound, per cent of control [32]: 100%; kinase still bound, per cent of control [33]: 100%; kinase still bound, per cent of control [34]: 100%; kinase still bound, per cent of control [35]: 100%; kinase still bound, per cent of control [36]: 100%; kinase still bound, per cent of control [37]: 100%; kinase still bound, per cent of control [38]: 20%; kinase still bound, per cent of control [39]: 100%; kinase still bound, per cent of control [40]: 100%
O=C(NOC[C@H](O)CO)c1ccc(F)c(F)c1Nc1ccc(I)cc1F	80%	91%	71%	89%	98%	89%	100%	100%	100%	94%	94%	95%	98%	81%	98%	100%	68%	74%	100%	69%	kinase still bound, per cent of control [21]: 100%; kinase still bound, per cent of control [22]: 100%; kinase still bound, per cent of control [23]: 86%; kinase still bound, per cent of control [24]: 100%; kinase still bound, per cent of control [25]: 100%; kinase still bound, per cent of control [26]: 69%; kinase still bound, per cent of control [27]: 88%; kinase still bound, per cent of control [28]: 86%; kinase still bound, per cent of control [29]: 100%; kinase still bound, per cent of control [30]: 100%; kinase still bound, per cent of control [31]: 99%; kinase still bound, per cent of control [32]: 96%; kinase still bound, per cent of control [33]: 100%; kinase still bound, per cent of control [34]: 100%; kinase still bound, per cent of control [35]: 64%; kinase still bound, per cent of control [36]: 100%; kinase still bound, per cent of control [37]: 51%; kinase still bound, per cent of control [38]: 100%; kinase still bound, per cent of control [39]: 100%; kinase still bound, per cent of control [40]: 100%
O=C1Nc2ccc(I)cc2/C1=C/c1cc(Br)c(O)c(Br)c1	99%	100%	1.6%	87%	100%	100%	1.9%	8.2%	100%	100%	73%	14%	41%	100%	70%	85%	100%	81%	93%	90%	kinase still bound, per cent of control [21]: 100%; kinase still bound, per cent of control [22]: 100%; kinase still bound, per cent of control [23]: 100%; kinase still bound, per cent of control [24]: 100%; kinase still bound, per cent of control [25]: 99%; kinase still bound, per cent of control [26]: 100%; kinase still bound, per cent of control [27]: 97%; kinase still bound, per cent of control [28]: 12%; kinase still bound, per cent of control [29]: 100%; kinase still bound, per cent of control [30]: 2.6%; kinase still bound, per cent of control [31]: 8.6%; kinase still bound, per cent of control [32]: 16%; kinase still bound, per cent of control [33]: 100%; kinase still bound, per cent of control [34]: 83%; kinase still bound, per cent of control [35]: 52%; kinase still bound, per cent of control [36]: 84%; kinase still bound, per cent of control [37]: 76%; kinase still bound, per cent of control [38]: 57%; kinase still bound, per cent of control [39]: 2.8%; kinase still bound, per cent of control [40]: 7.8%
